Data: the supplement of paper PMC6045584
± gives the standard deviation of the averaged measurements.

Experiments:
ETOPOSIDE = compound: COc1cc([C@@H]2c3cc4c(cc3[C@@H](O[C@@H]3O[C@@H]5CO[C@@H](C)O[C@H]5[C@H](O)[C@H]3O)[C@H]3COC(=O)[C@H]23)OCO4)cc(OC)c1O [ETOPOSIDE]; experiment: surviving fraction relative to DMSO-only wells; higher = less growth inhibition; settings: exposure time: 5 days
Outline: (§1)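 Luminescence normalised to the median of DMSO-only wells defines surviving fraction, with viability read by CellTiter-Glo. Signal was recorded after 10 minutes at room temperature, once log-phase tumour cell lines seeded at 250–500 cells per well in 384-well plates had spent 24 hours settling and then five days under continuous exposure to inhibitors at 0.5, 1, 5, 10, 50, 100, 500 and 1000 nM.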

VINORELBINE = compound: CCC1=C[C@@H]2CN(C1)Cc1c([nH]c3ccccc13)[C@@](C(=O)OC)(c1cc3c(cc1OC)N(C)[C@H]1[C@@](O)(C(=O)OC)[C@H](OC(C)=O)[C@]4(CC)C=CCN5CC[C@]31[C@@H]54)C2 [VINORELBINE]; experiment: as above; settings: exposure time: 5 days
Outline: as §1

Test System	surviving fraction (ETOPOSIDE; 0.5 nM)	surviving fraction (ETOPOSIDE; 1 nM)	surviving fraction (ETOPOSIDE; 5 nM)	surviving fraction (ETOPOSIDE; 10 nM)	surviving fraction (ETOPOSIDE; 50 nM)	surviving fraction (ETOPOSIDE; 100 nM)	surviving fraction (ETOPOSIDE; 500 nM)	surviving fraction (ETOPOSIDE; 1000 nM)	surviving fraction (VINORELBINE; 0.5 nM)	surviving fraction (VINORELBINE; 1 nM)	surviving fraction (VINORELBINE; 5 nM)	surviving fraction (VINORELBINE; 10 nM)	surviving fraction (VINORELBINE; 50 nM)	surviving fraction (VINORELBINE; 100 nM)	surviving fraction (VINORELBINE; 500 nM)	surviving fraction (VINORELBINE; 1000 nM)
SUM149 BREAST	1.16 ± 0.04	1.17 ± 0.061	1.21 ± 0.048	1.13 ± 0.077	0.753 ± 0.044	0.563 ± 0.025	0.156 ± 0.0049	0.153 ± 0.0044	1.07 ± 0.072	1.11 ± 0.038	1.03 ± 0.059	0.768 ± 0.076	0.052 ± 0.0027	0.0443 ± 0.0076	0.0563 ± 0.0047	0.061 ± 0.0046
CAL51 BREAST	0.951 ± 0.068	1.02 ± 0.022	0.956 ± 0.039	0.977 ± 0.049	0.929 ± 0.063	0.921 ± 0.019	0.305 ± 0.037	0.139 ± 0.011	0.926 ± 0.047	0.945 ± 0.016	0.736 ± 0.035	0.452 ± 0.011	0.0567 ± 0.0027	0.045 ± 0.0027	0.0317 ± 0.0015	0.0318 ± 0.0033
HCC38 BREAST	1.28 ± 0.31	1.19 ± 0.15	1.16 ± 0.18	1.17 ± 0.1	1.09 ± 0.054	1.21 ± 0.059	0.53 ± 0.067	0.316 ± 0.026	1.19 ± 0.19	1.12 ± 0.3	1.24 ± 0.14	1.06 ± 0.12	0.223 ± 0.039	0.216 ± 0.029	0.334 ± 0.06	0.251 ± 0.0055
JURKAT HAEMATOPOIETIC AND LYMPHOID TISSUE	1.084 ± 0.0084	1.1 ± 0.023	1.052 ± 0.0055	1.011 ± 0.0045	0.633 ± 0.043	0.261 ± 0.01	0.064 ± 0.005	0.0413 ± 0.00058	1.07 ± 0.02	1.066 ± 0.0099	0.952 ± 0.041	0.168 ± 0.034	0.0297 ± 0.00058	0.0247 ± 0.00058	0.025	0.0233 ± 0.00058
HCC1954 BREAST	0.889 ± 0.22	0.872 ± 0.095	1.1 ± 0.064	1.05 ± 0.074	0.953 ± 0.054	0.654 ± 0.014	0.512 ± 0.13	0.34 ± 0.0014	1.08 ± 0.15	0.9287 ± 0.0046	0.576 ± 0.01	0.311 ± 0.011	0.1412 ± 0.0011	0.13 ± 0.00071	0.091 ± 0.0021	0.144 ± 0.025
MDAMB453 BREAST	1.07 ± 0.098	1.13 ± 0.14	1.13 ± 0.057	1.13 ± 0.07	1.16 ± 0.046	1.15 ± 0.076	1.14 ± 0.12	0.984 ± 0.078	1.04 ± 0.049	1.029 ± 0.004	0.387 ± 0.038	0.244 ± 0.022	0.16 ± 0.034	0.116 ± 0.018	0.176 ± 0.044	0.25 ± 0.048
93VU HEADNECK	1 ± 0.042	1.07 ± 0.033	1.11 ± 0.037	1.05 ± 0.15	1.03 ± 0.12	1.14 ± 0.12	0.953 ± 0.054	0.896 ± 0.021	1.02 ± 0.11	1.02 ± 0.19	1.04 ± 0.034	1.05 ± 0.075	0.554 ± 0.011	0.292 ± 0.03	0.141 ± 0.015	0.145 ± 0.022
SUM159 BREAST	1.14 ± 0.18	1.08 ± 0.08	1.1 ± 0.11	1.07 ± 0.058	1.06 ± 0.055	0.977 ± 0.079	0.364 ± 0.086	0.187 ± 0.027	0.966 ± 0.14	0.944 ± 0.2	0.941 ± 0.2	0.908 ± 0.23	0.423 ± 0.19	0.156 ± 0.052	0.129 ± 0.053	0.12 ± 0.046
